Where a name gives a salt, the structure may show the parent alone.

The term IC50 denotes the concentration at which inhibition is half-maximal.

Assay [1] has as its system 45Ca2+ uptake (veratrine-stimulated, rat cerebral cortex crude synaptosome fraction). Put plainly: 45Ca2+ uptake inhibition experiment. Type of assay: biochemical. As to conditions: 30 μM veratrine, 37° C., 10 minutes, read-out: 45Ca2+ uptake inhibitory activity (IC50 μM). How it is done:
The rat cerebral cortex was homogenized in 10 volumes of ice-cooled 0.32M sucrose solution to prepare a crude synaptosome fraction (100×G, 10 min., 12000×G, 20 min.). […] To 900 μl of the homogenate was added a DMSO solution of the test drug (10 μl). The mixture was incubated at 37° C. for 10 minutes, followed by addition of 100 μl of a veratrine solution (containing 0.18 uci ^45 Ca^2+) at a final veratrine concentration of 30 μM. The mixture was incubated at 37° C. for 10 minutes, quenched with 4 ml of ice-cooled EGTA solution (120 mM sodium chloride, 5 mM potassium chloride, 5 mM EGTA, pH=7.5) and suction-filtered using a GF/B filter. The filter was washed twice with 4 ml each of a washing solution (132 mM sodium chloride, 5 mM potassium chloride, 1.3 mM magnesium chloride, 1.2 mM calcium, chloride, 20 mM Tris base, pH 7.5) and the radioactivity of […] was measured by the liquid scintillation method.
The ^45 Ca^2+ uptake inhibition rate was calculated by means of the following equation. [formula] A: The ^45 Ca^2+ uptake after 10 minutes' stimulation with 30 μM veratrine in the presence of the test drug
B: The ^45 Ca^2+ uptake in the absence of veratrine and in the presence of the test drug
C: The ^45 Ca^2+ uptake after 10 minutes' stimulation with 30 μM veratrine in the absence of the test drug
D: The ^45 Ca^2+ uptake in the absence of the test drug and in the absence of veratrine

The next assay concerns serotonine (5-HT) uptake. The assay can be described thus: Activity to inhibit serotonine (5-HT) uptake. Type of assay: biochemical. As to conditions: rat whole brain; 3H-5-HT 10 nM; 37° C.; pH 7.4; read-out: 5-HT uptake inhibitory activity (IC50 μM). Here is the method:
(a) Activity to inhibit serotonine (5-HT) uptake
The experiment was performed in accordance with the method of Hyttel et al. [Psychopharmacology 60, 13, 1978]. The whole brain of a rat was homogenized in 40 volumes of ice-cooled 0.32M sucrose solution containing 10 μM pargyline and, then, centrifuged (600×G) for 10 minutes. The supernatant was centrifuged (2500×G) for 55 minutes to provide a pellet. This pellet was suspended in Krebs-Ringer-phosphate buffer (pH 7.4; 122 mM NaCl, 4.82 mM KCl, 0.972 mM CaCl2, 1.21 mM MgSO4, 12.7 mM Na2 HPO4, 2.97 mM NaH2 PO4, 0.162 mM EDTA sodium, 10 mM glucose, 1.14 mM ascorbic acid) saturated with a mixed gas (95% O and 5% CO2). To 900 μl of this suspention was added a solution of the test drug (10 μl) in DMSO and the mixture was incubated at 37° C. for 5 minutes. Then, 100 μl of ^3 H-5-HT (final concentration 10 nM) was added and the mixture was further incubated at 37° C. for 5 minutes. This reaction mixture was filtered under suction using a GF/B filter and the filter was washed with 4 ml of the above-mentioned buffer. The radioactivity on the filter was measured by the liquid scintillation method.
The amount of the drug which caused a 50% decrease in 5-HT uptake is shown as 50% inhibitory activity (IC50) in Table 42.

Consider `Fc1ccccc1CNCCCC1(c2ccccc2)COCc2ccccc21` (stereo not drawn) [Example I-19, 4-[3-(o-Fluorobenzylamino)propyl]-4-phenylisochroman hydrochloride], for which the IC50 in assay [1] amounted to 1.05 µM.
For the compound `c1ccc(CNCCCC2(c3ccccc3)COCc3ccccc32)cc1` (stereo not drawn) [Example I-18, 4-[3-(Benzylamino)propyl]-4-phenylisochroman hydrochloride], the IC50 in the assay with serotonine (5-HT) uptake was 0.8 µM; in assay [1], 1.32 µM.
On to `c1ccc(C2(CCCN3CCCCCC3)COCc3ccccc32)cc1` (stereo not drawn) [Example I-15, 4-[3-(1-Hexamethyleneimino)propyl]-4-phenylisochroman hydrochloride], for which, in assay [1], the IC50 stood at 1.25 µM.
Regarding `CN1Cc2ccccc2C(CCCN2CCC(c3ccccc3)CC2)(c2ccc(Cl)cc2)C1` (stereo not drawn) [IV-13, 4-(p-Chlorophenyl)-2-methyl-4-[3-(4-phenylpiperidino)propyl]-1,2,3,4-tetrahydroisoquinoline trihydrochloride], the IC50 with serotonine (5-HT) uptake was 0.13 µM; in assay [1], 0.32 µM.
On the same counts, the results for `C1=NCC(CCCN2CCN(c3ccccc3)CC2)(c2ccccc2)c2ccccc21` (stereo not drawn) [II-8, 4-Phenyl-4-[3-(4-phenylpiperazin-1-yl)propyl]isoquinoline] are 0.41 µM and 1.84 µM.
With `Fc1ccc(N2CCN(CCCC3(c4ccccc4)CNCc4ccccc43)CC2)cc1` (stereo not drawn) [III-9, 4-{3-[4-(p-fluorophenyl)piperazin-1-yl]propyl}-1,2,3,4-tetrahydro-4-phenylisoquinoline dihydrochloride], the results for the IC50 (with serotonine (5-HT) uptake; in assay [1]) were 0.17 µM and 1.44 µM, respectively.
On to `c1ccc(C2(CCCNCc3ccccn3)COCc3ccccc32)cc1` (stereo not drawn) [Example I-23, 4-[3-(2-Picolylamino)propyl]-4-phenylisochroman dihydrochloride], for which the IC50 in assay [1] turned out to be 0.5 µM.
Regarding `Clc1ccccc1CNCCCC1(c2ccccc2)COCc2ccccc21` (stereo not drawn) [Example I-20, 4-[3-(o-Chlorobenzylamino)propyl]-4-phenylisochroman hydrochloride], the IC50 in assay [1] amounted to 0.94 µM.
Turning to `CN(CCCC1(c2ccccc2)CN=Cc2ccccc21)Cc1ccccc1` (stereo not drawn) [II-7, 4-[3-(N-Benzyl-N-methyl)aminopropyl]-3,4-dihydro-4-phenylisoquinoline dihydrochloride], the IC50 with serotonine (5-HT) uptake is 0.88 µM; in assay [1], 0.46 µM.
For `c1ccc(N2CCN(CCC3(c4ccccc4)COCc4ccccc43)CC2)cc1` (stereo not drawn) [Example I-6, 4-[2-(4-Phenylpiperazin-1-yl)ethyl]-4-phenylisochroman dihydrochloride], the results for the IC50 (with serotonine (5-HT) uptake; in assay [1]) were 1 µM and 0.32 µM, respectively.
For `CN(CCCC1(c2ccccc2)CNCc2ccccc21)Cc1ccccc1` (stereo not drawn) [III-7, 4-[3-(N-Benzyl-N-methyl)aminopropyl]-1,2,3,4-tetrahydro-4-phenylisoquinoline dihydrochloride], the IC50 in the assay with serotonine (5-HT) uptake amounted to 0.2 µM; in assay [1], 1.77 µM.
With `CN1Cc2ccccc2C(CCCN2CCN(c3ccccc3)CC2)(c2ccccc2)C1` (stereo not drawn) [IV-7, 1,2,3,4-Tetrahydro-2-methyl-4-phenyl-4-[3-(4-phenylpiperazin-1-yl)propyl]isoquinoline trihydrochloride], the results for the IC50 (in the assay with serotonine (5-HT) uptake; in assay [1]) were 0.18 µM and 1.71 µM, respectively.
In the case of `Clc1ccc(C2(CCCN3CCN(c4ccccc4)CC3)CN=Cc3ccccc32)cc1` (stereo not drawn) [II-13, 4-(p-Chlorophenyl)-3,4-dihydro-4-[3-(4-phenylpiperazino)propyl]isoquinolinetrihydrochloride], the IC50 in the assay with serotonine (5-HT) uptake turned out to be 0.14 µM; in assay [1] it was 1.29 µM.
On to `c1ccc(N2CCN(CCCC3(c4ccccc4)CNCc4ccccc43)CC2)cc1` (stereo not drawn) [III-8, 1,2,3,4-Tetrahydro-4-phenyl-4-[3-(4-phenylpiperazin-1-yl)propyl]isoquinoline trihydrochloride], for which the IC50 in the assay with serotonine (5-HT) uptake is 0.16 µM; in assay [1] it was 1.63 µM.

Source of the values: patent US5654296A, “Condensed heterocyclic compounds, their production and use” (priority 1994, dated 1997).
